From PubChem BioAssay AID1963429 (Molecular Pharmacology Branch, DTP, NCI, 2024)
Where “and” joins values, the source holds several entries; their conditions need not be identical. Equal entries are not always repeated.

Tested on: 126254-015-R-J1-PDC complex spheroid growth, % test/control
Assay: Anticancer human tumor 126254-015-R-J1-PDC patient-derived soft tissue sarcoma cell line growth inhibition [Asc]
Settings: for viability, T/C: stronger effect = lower value
How it was run: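 Complex spheroids combining tumor cells with HUVEC endothelial cells and human MSCs, at 37 degrees C, 5% CO2; agents tested alone or combined, half-log dilutions from at or near clinical Cmax, or 10 microM if Cmax unknown.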

[1] = curve of first compound, second compound 0.1 µM
[2] = curve of first compound, second compound 0.316 µM
[3] = curve of first compound, second compound 1 µM
[4] = second compound 0.1 µM, first compound 0.00316 µM
[5] = second compound 0.1 µM, first compound 0.01 µM
[6] = second compound 0.1 µM, first compound 0.0316 µM
[7] = second compound 0.1 µM, first compound 0.1 µM
[8] = second compound 0.316 µM, first compound 0.00316 µM
[9] = second compound 0.316 µM, first compound 0.01 µM
[10] = second compound 0.316 µM, first compound 0.0316 µM
[11] = second compound 0.316 µM, first compound 0.1 µM
[12] = second compound 1 µM, first compound 0.00316 µM
[13] = second compound 1 µM, first compound 0.01 µM
[14] = second compound 1 µM, first compound 0.0316 µM
[15] = second compound 1 µM, first compound 0.1 µM
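Further: spheroids exposed to compound for seven days.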
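Wherever viability, T/C is given: 100% = DMSO vehicle control wells.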

SMILES: CCN1CCN(Cc2ccc(Nc3ncc(F)c(-c4cc(F)c5nc(C)n(C(C)C)c5c4)n3)nc2)CC1 + Cc1c(S(C)(=O)=O)c(-c2cc(F)cc(N3CCN(c4ccc(NS(=O)(=O)c5ccc(NC(CCN6CCC(C(=O)OCCCP(=O)(O)O)CC6)CSc6ccccc6)c(S(=O)(=O)C(F)(F)F)c5)cc4)CC3)c2)c(-c2ccc(Cl)cc2)n1C(C)C
- IC50 [1]: > 1000 nM
- IC50 [2]: > 1000 nM
- IC50 [3]: > 1000 nM
- IC50 (curve of first compound, second compound 3.16 µM): > 1000 nM
- IC50 (curve of first compound, second compound 10 µM): > 1000 nM
- viability, T/C [4]: 99.3%
- viability, T/C [5]: 95.5%
- viability, T/C [6]: 88.4%
- viability, T/C [7]: 90.1%
- viability, T/C (second compound 0.1 µM, first compound 0.316 µM): 110%
- viability, T/C (second compound 0.1 µM, first compound 1 µM): 98.4%
- viability, T/C [8]: 87.8%
- viability, T/C [9]: 89.1%
- viability, T/C [10]: 84.4%
- viability, T/C [11]: 95.5%
- viability, T/C (second compound 0.316 µM, first compound 0.316 µM): 90.3%
- viability, T/C (second compound 0.316 µM, first compound 1 µM): 87%
- viability, T/C [12]: 86.5%
- viability, T/C [13]: 81.7%
- viability, T/C [14]: 93.3%
- viability, T/C [15]: 86.4%
- viability, T/C (second compound 1 µM, first compound 0.316 µM): 97.9%
- viability, T/C (second compound 1 µM, first compound 1 µM): 73.3%
- viability, T/C (second compound 3.16 µM, first compound 0.00316 µM): 96.6%
- viability, T/C (second compound 3.16 µM, first compound 0.01 µM): 87.7%
- viability, T/C (second compound 3.16 µM, first compound 0.0316 µM): 90.1%
- viability, T/C (second compound 3.16 µM, first compound 0.1 µM): 72.4%
- viability, T/C (second compound 3.16 µM, first compound 0.316 µM): 86.6%
- viability, T/C (second compound 3.16 µM, first compound 1 µM): 87.3%
- viability, T/C (second compound 10 µM, first compound 0.00316 µM): 86.5%
- viability, T/C (second compound 10 µM, first compound 0.01 µM): 90.4%
- viability, T/C (second compound 10 µM, first compound 0.0316 µM): 86.1%
- viability, T/C (second compound 10 µM, first compound 0.1 µM): 98%
- viability, T/C (second compound 10 µM, first compound 0.316 µM): 87.5%
- viability, T/C (second compound 10 µM, first compound 1 µM): 73.8%

SMILES: Cn1ncnc1[C@H]1c2n[nH]c(=O)c3cc(F)cc(c23)N[C@@H]1c1ccc(F)cc1 + CNC(C)C(=O)NC1CN(S(=O)(=O)c2cccc(S(=O)(=O)N3CCC4CCC(C(=O)NC(c5ccccc5)c5ccccc5)N4C(=O)C(NC(=O)C(C)NC)C3)c2)CCC2CCC(C(=O)NC(c3ccccc3)c3ccccc3)N2C1=O
- IC50 (curve of first compound, second compound 0.01 µM): > 100 nM
- IC50 (curve of first compound, second compound 0.0316 µM): > 100 nM
- IC50 [1]: 56.2 nM
- IC50 [2]: 13.1 nM
- IC50 [3]: 10 nM
- viability, T/C (second compound 0.01 µM, first compound 0.000316 µM): 82.1%
- viability, T/C (second compound 0.01 µM, first compound 0.001 µM): 82.3%
- viability, T/C (second compound 0.01 µM, first compound 0.00316 µM): 78.2%
- viability, T/C (second compound 0.01 µM, first compound 0.01 µM): 79.6%
- viability, T/C (second compound 0.01 µM, first compound 0.0316 µM): 77.3%
- viability, T/C (second compound 0.01 µM, first compound 0.1 µM): 63.1%
- viability, T/C (second compound 0.0316 µM, first compound 0.000316 µM): 71%
- viability, T/C (second compound 0.0316 µM, first compound 0.001 µM): 77.3%
- viability, T/C (second compound 0.0316 µM, first compound 0.00316 µM): 71%
- viability, T/C (second compound 0.0316 µM, first compound 0.01 µM): 61.4%
- viability, T/C (second compound 0.0316 µM, first compound 0.0316 µM): 56.1%
- viability, T/C (second compound 0.0316 µM, first compound 0.1 µM): 58.1%
- viability, T/C (second compound 0.1 µM, first compound 0.000316 µM): 67.3%
- viability, T/C (second compound 0.1 µM, first compound 0.001 µM): 67.4%
- viability, T/C [4]: 60.5%
- viability, T/C [5]: 55.8%
- viability, T/C [6]: 58.4%
- viability, T/C [7]: 44.7%
- viability, T/C (second compound 0.316 µM, first compound 0.000316 µM): 56%
- viability, T/C (second compound 0.316 µM, first compound 0.001 µM): 70.9%
- viability, T/C [8]: 59.2%
- viability, T/C [9]: 51.8%
- viability, T/C [10]: 44.4%
- viability, T/C [11]: 41%
- viability, T/C (second compound 1 µM, first compound 0.000316 µM): 53.2%
- viability, T/C (second compound 1 µM, first compound 0.001 µM): 63.7%
- viability, T/C [12]: 56.2%
- viability, T/C [13]: 42.4%
- viability, T/C [14]: 46.8%
- viability, T/C [15]: 44.1%

SMILES: CCN1C(C(=O)NC23CCC(C(=O)O)(CC2)CC3)C(c2cccc(Cl)c2F)C2(C(=O)Nc3cc(Cl)ccc32)C12CCCCC2 (stereo unspecified)
- viability, T/C (compound 0.00949 µM): 105% and 96.1%
- viability, T/C (compound 0.03 µM): 95.4% [middle of 15 runs]
- viability, T/C (compound 0.0949 µM): 96.8% [middle of 15 runs]
- viability, T/C (compound 0.3 µM): 93.5% [middle of 15 runs]
- viability, T/C (compound 0.949 µM): 96.8% [middle of 15 runs]
- IC50 (compound alone, run of 09/27/2022): > 3000 nM
- IC50 (curve of compound): > 3000 nM

SMILES: Cn1ncnc1[C@H]1c2n[nH]c(=O)c3cc(F)cc(c23)N[C@@H]1c1ccc(F)cc1
- viability, T/C (compound 0.000316 µM): 93.2% and 98% and 104%
- viability, T/C (compound 0.001 µM): 95.6% and 106% and 103%
- viability, T/C (compound 0.00316 µM): 90.9% and 91% and 86.1%
- viability, T/C (compound 0.01 µM): 80.1% and 88.7% and 90.3%
- viability, T/C (compound 0.0316 µM): 91.6% and 90% and 79.6%
- viability, T/C (compound 0.1 µM): 80.9% and 89.7% and 70.5%
- IC50 (curve of compound): > 100 nM

SMILES: O=C(c1ccc(F)c(F)c1Nc1ccc(I)cc1F)N1CC(O)([C@@H]2CCCCN2)C1
- viability, T/C (compound 0.00316 µM): 103% and 94.5% and 96.1%
- viability, T/C (compound 0.01 µM): 109% (2×) and 105%
- viability, T/C (compound 0.0316 µM): 102% (2×) and 93.1%
- viability, T/C (compound 0.1 µM): 91.6% and 90.3% and 101%
- viability, T/C (compound 0.316 µM): 66.5% and 70.8% and 78.6%
- viability, T/C (compound 1 µM): 42.6% and 42.9% and 55.1%
- IC50 (curve of compound): 699 nM and 755 nM and > 1000 nM

SMILES: C=CC(=O)N1CCN(c2nc(=O)n(-c3c(C)ccnc3C(C)C)c3nc(-c4c(O)cccc4F)c(F)cc23)C(C)C1 (stereo unspecified) + CCN1C(C(=O)NC23CCC(C(=O)O)(CC2)CC3)C(c2cccc(Cl)c2F)C2(C(=O)Nc3cc(Cl)ccc32)C12CCCCC2
- IC50 (curve of first compound, second compound 0.03 µM): > 10000 nM
- IC50 (curve of first compound, second compound 0.0949 µM): > 10000 nM
- IC50 (curve of first compound, second compound 0.3 µM): > 10000 nM
- IC50 (curve of first compound, second compound 0.949 µM): > 10000 nM
- IC50 (curve of first compound, second compound 3 µM): > 10000 nM
- viability, T/C (second compound 0.03 µM, first compound 0.0316 µM): 94.8%
- viability, T/C (second compound 0.03 µM, first compound 0.1 µM): 114%
- viability, T/C (second compound 0.03 µM, first compound 0.316 µM): 106%
- viability, T/C (second compound 0.03 µM, first compound 1 µM): 103%
- viability, T/C (second compound 0.03 µM, first compound 3.16 µM): 114%
- viability, T/C (second compound 0.03 µM, first compound 10 µM): 89%
- viability, T/C (second compound 0.0949 µM, first compound 0.0316 µM): 110%
- viability, T/C (second compound 0.0949 µM, first compound 0.1 µM): 92.6%
- viability, T/C (second compound 0.0949 µM, first compound 0.316 µM): 98.1%
- viability, T/C (second compound 0.0949 µM, first compound 1 µM): 104%
- viability, T/C (second compound 0.0949 µM, first compound 3.16 µM): 111%
- viability, T/C (second compound 0.0949 µM, first compound 10 µM): 88.5%
- viability, T/C (second compound 0.3 µM, first compound 0.0316 µM): 98.4%
- viability, T/C (second compound 0.3 µM, first compound 0.1 µM): 121%
- viability, T/C (second compound 0.3 µM, first compound 0.316 µM): 106%
- viability, T/C (second compound 0.3 µM, first compound 1 µM): 112%
- viability, T/C (second compound 0.3 µM, first compound 3.16 µM): 105%
- viability, T/C (second compound 0.3 µM, first compound 10 µM): 98.5%
- viability, T/C (second compound 0.949 µM, first compound 0.0316 µM): 94.9%
- viability, T/C (second compound 0.949 µM, first compound 0.1 µM): 109%
- viability, T/C (second compound 0.949 µM, first compound 0.316 µM): 106%
- viability, T/C (second compound 0.949 µM, first compound 1 µM): 120%
- viability, T/C (second compound 0.949 µM, first compound 3.16 µM): 110%
- viability, T/C (second compound 0.949 µM, first compound 10 µM): 84.2%
- viability, T/C (second compound 3 µM, first compound 0.0316 µM): 109%
- viability, T/C (second compound 3 µM, first compound 0.1 µM): 109%
- viability, T/C (second compound 3 µM, first compound 0.316 µM): 106%
- viability, T/C (second compound 3 µM, first compound 1 µM): 109%
- viability, T/C (second compound 3 µM, first compound 3.16 µM): 109%
- viability, T/C (second compound 3 µM, first compound 10 µM): 93.2%
